Reference: the NIST ThermoML archive (doi:10.1016/j.jct.2013.01.005)
Numbers after ± are expanded uncertainties.

Legend:
[1] = 101.33 kPa, Liquid, Vibrating tube method
[2] = activity coefficient (dimensionless); of the first substance listed, at infinite dilution; xn = mol fraction of the nth substance listed; details: 101 kPa, Liquid, Chromatography, x1 = 0

CCCCCC[N+]1(C)CCCCC1.O=S(=O)([N-]S(=O)(=O)C(F)(F)F)C(F)(F)F
[1]
Details | mass density [kg/m3]
293.15 K | 1329.53 ± 0.18
298.15 K | 1325.41 ± 0.18
303.15 K | 1321.3 ± 0.18
308.15 K | 1317.2 ± 0.18
313.15 K | 1313.11 ± 0.18
318.15 K | 1309.04 ± 0.18
323.15 K | 1304.98 ± 0.18
328.15 K | 1300.93 ± 0.18
333.15 K | 1296.9 ± 0.17
338.15 K | 1292.88 ± 0.17
343.15 K | 1288.87 ± 0.17
348.15 K | 1284.87 ± 0.17
353.15 K | 1280.88 ± 0.17
358.15 K | 1276.91 ± 0.17

CCCCC[N+]1(C)CCCCC1.O=S(=O)([N-]S(=O)(=O)C(F)(F)F)C(F)(F)F
[1]
Details | mass density [kg/m3]
293.15 K | 1354.47 ± 0.26
298.15 K | 1350.13 ± 0.26
303.15 K | 1345.85 ± 0.26
308.15 K | 1341.7 ± 0.26
313.15 K | 1337.54 ± 0.26
318.15 K | 1333.36 ± 0.25
323.15 K | 1329.2 ± 0.25
328.15 K | 1325.05 ± 0.25
333.15 K | 1320.89 ± 0.25
338.15 K | 1316.75 ± 0.25
343.15 K | 1312.6 ± 0.24
348.15 K | 1308.46 ± 0.24
353.15 K | 1304.36 ± 0.24
358.15 K | 1300.26 ± 0.24

CCCOCCC [dipropyl ether] + CCCCCC[N+]1(C)CCCCC1.O=S(=O)([N-]S(=O)(=O)C(F)(F)F)C(F)(F)F
[2]
Details | activity coefficient
308.15 K | 3.5 ± 0.24
318.15 K | 3.47 ± 0.24
328.15 K | 3.44 ± 0.23
338.15 K | 3.41 ± 0.23
348.15 K | 3.38 ± 0.23
358.15 K | 3.37 ± 0.23

CCCOCCC [dipropyl ether] + CCCCC[N+]1(C)CCCCC1.O=S(=O)([N-]S(=O)(=O)C(F)(F)F)C(F)(F)F
[2]
Details | activity coefficient
308.15 K | 4.17 ± 0.28
318.15 K | 4.13 ± 0.28
328.15 K | 4.05 ± 0.28
338.15 K | 4.02 ± 0.27
348.15 K | 3.98 ± 0.27
358.15 K | 3.96 ± 0.27

CCO [ethanol] + CCCCCC[N+]1(C)CCCCC1.O=S(=O)([N-]S(=O)(=O)C(F)(F)F)C(F)(F)F
[2]
Details | activity coefficient
308.15 K | 1.81 ± 0.12
318.15 K | 1.63 ± 0.11
328.15 K | 1.49 ± 0.1
338.15 K | 1.37 ± 0.09
348.15 K | 1.27 ± 0.08
358.15 K | 1.18 ± 0.08

CCO [ethanol] + CCCCC[N+]1(C)CCCCC1.O=S(=O)([N-]S(=O)(=O)C(F)(F)F)C(F)(F)F
[2]
Details | activity coefficient
308.15 K | 1.79 ± 0.12
318.15 K | 1.58 ± 0.1
328.15 K | 1.46 ± 0.1
338.15 K | 1.35 ± 0.09
348.15 K | 1.27 ± 0.08
358.15 K | 1.18 ± 0.08

CCc1ccccc1 [ethylbenzene] + CCCCCC[N+]1(C)CCCCC1.O=S(=O)([N-]S(=O)(=O)C(F)(F)F)C(F)(F)F
[2]
Details | activity coefficient
308.15 K | 0.864 ± 0.055
318.15 K | 0.894 ± 0.057
328.15 K | 0.909 ± 0.058
338.15 K | 0.934 ± 0.059
348.15 K | 0.957 ± 0.06
358.15 K | 0.969 ± 0.061

CCc1ccccc1 [ethylbenzene] + CCCCC[N+]1(C)CCCCC1.O=S(=O)([N-]S(=O)(=O)C(F)(F)F)C(F)(F)F
[2]
Details | activity coefficient
308.15 K | 1.26 ± 0.08
318.15 K | 1.31 ± 0.09
328.15 K | 1.35 ± 0.09
338.15 K | 1.37 ± 0.09
348.15 K | 1.42 ± 0.09
358.15 K | 1.43 ± 0.09

CCCCCCC [heptane] + CCCCCC[N+]1(C)CCCCC1.O=S(=O)([N-]S(=O)(=O)C(F)(F)F)C(F)(F)F
[2]
Details | activity coefficient
308.15 K | 10.2 ± 0.7
318.15 K | 9.81 ± 0.67
328.15 K | 9.38 ± 0.64
338.15 K | 8.99 ± 0.61
348.15 K | 8.68 ± 0.59
358.15 K | 8.2 ± 0.56

CCCCCCC [heptane] + CCCCC[N+]1(C)CCCCC1.O=S(=O)([N-]S(=O)(=O)C(F)(F)F)C(F)(F)F
[2]
Details | activity coefficient
308.15 K | 13.6 ± 0.9
318.15 K | 12.4 ± 0.8
328.15 K | 11.8 ± 0.8
338.15 K | 11.3 ± 0.8
348.15 K | 10.8 ± 0.7
358.15 K | 10.4 ± 0.7

C=CCCCC [hex-1-ene] + CCCCCC[N+]1(C)CCCCC1.O=S(=O)([N-]S(=O)(=O)C(F)(F)F)C(F)(F)F
[2]
Details | activity coefficient
308.15 K | 4.53 ± 0.31
318.15 K | 4.45 ± 0.3
328.15 K | 4.34 ± 0.3
338.15 K | 4.28 ± 0.29
348.15 K | 4.15 ± 0.28
358.15 K | 4.06 ± 0.28

C=CCCCC [hex-1-ene] + CCCCC[N+]1(C)CCCCC1.O=S(=O)([N-]S(=O)(=O)C(F)(F)F)C(F)(F)F
[2]
Details | activity coefficient
308.15 K | 5.52 ± 0.38
318.15 K | 5.31 ± 0.36
328.15 K | 5.13 ± 0.35
338.15 K | 5 ± 0.34
348.15 K | 4.92 ± 0.34
358.15 K | 4.8 ± 0.33

CCCCCC [hexane] + CCCCCC[N+]1(C)CCCCC1.O=S(=O)([N-]S(=O)(=O)C(F)(F)F)C(F)(F)F
[2]
Details | activity coefficient
308.15 K | 7.67 ± 0.52
318.15 K | 7.4 ± 0.5
328.15 K | 7.07 ± 0.48
338.15 K | 6.85 ± 0.47
348.15 K | 6.67 ± 0.45
358.15 K | 6.37 ± 0.43

CCCCCC [hexane] + CCCCC[N+]1(C)CCCCC1.O=S(=O)([N-]S(=O)(=O)C(F)(F)F)C(F)(F)F
[2]
Details | activity coefficient
308.15 K | 9.9 ± 0.68
318.15 K | 9.5 ± 0.65
328.15 K | 8.9 ± 0.61
338.15 K | 8.45 ± 0.58
348.15 K | 8.19 ± 0.56
358.15 K | 7.92 ± 0.54

CO [methanol] + CCCCCC[N+]1(C)CCCCC1.O=S(=O)([N-]S(=O)(=O)C(F)(F)F)C(F)(F)F
[2]
Details | activity coefficient
308.15 K | 1.51 ± 0.1
318.15 K | 1.37 ± 0.09
328.15 K | 1.26 ± 0.08
338.15 K | 1.16 ± 0.07
348.15 K | 1.08 ± 0.07
358.15 K | 0.995 ± 0.062

CO [methanol] + CCCCC[N+]1(C)CCCCC1.O=S(=O)([N-]S(=O)(=O)C(F)(F)F)C(F)(F)F
[2]
Details | activity coefficient
308.15 K | 1.45 ± 0.1
318.15 K | 1.32 ± 0.09
328.15 K | 1.21 ± 0.08
338.15 K | 1.12 ± 0.07
348.15 K | 1.07 ± 0.07
358.15 K | 1 ± 0.06

CC1CCCCC1 [methylcyclohexane] + CCCCCC[N+]1(C)CCCCC1.O=S(=O)([N-]S(=O)(=O)C(F)(F)F)C(F)(F)F
[2]
Details | activity coefficient
308.15 K | 6.24 ± 0.43
318.15 K | 6.05 ± 0.41
328.15 K | 5.83 ± 0.4
338.15 K | 5.59 ± 0.38
348.15 K | 5.4 ± 0.37
358.15 K | 5.2 ± 0.35

CC1CCCCC1 [methylcyclohexane] + CCCCC[N+]1(C)CCCCC1.O=S(=O)([N-]S(=O)(=O)C(F)(F)F)C(F)(F)F
[2]
Details | activity coefficient
308.15 K | 7.8 ± 0.53
318.15 K | 7.49 ± 0.51
328.15 K | 7.16 ± 0.49
338.15 K | 6.87 ± 0.47
348.15 K | 6.64 ± 0.45
358.15 K | 6.42 ± 0.44
